Key:
Oryza sativa [1] = assay: Inhibition of PDHc in Oryza sativa (rice) shoot mitochondria assessed as decrease in rate of NADH formation using sodium pyruvate as substrate at 0.1 microg/g preincubated for 25 min before substrate addition measured after 1 min by spectrophotometric assay
Oryza sativa [2] = assay: Inhibition of PDHc in Oryza sativa (rice) shoot mitochondria assessed as decrease in rate of NADH formation using sodium pyruvate as substrate at 10 microg/g preincubated for 25 min before substrate addition measured after 1 min by spectrophotometric assay
Echinochloa crus-galli [3] = assay: Post-emergence herbicidal activity against Echinochloa crus-galli (barnyard grass) assessed as growth inhibition at 300 ai g/ha after 20 days by green house test; assay type: functional
Echinochloa crus-galli [4] = assay: Post-emergence herbicidal activity against Echinochloa crus-galli (barnyard grass) assessed as growth inhibition at 37.5 ai g/ha after 20 days by green house test; assay type: functional
Medicago sativa = assay: Post-emergence herbicidal activity against Medicago sativa (alfalfa) assessed as growth inhibition at 450 ai g/ha after 20 days by green house test; assay type: functional
Portulaca oleracea = assay: Post-emergence herbicidal activity against Portulaca oleracea assessed as growth inhibition at 450 ai g/ha after 20 days by green house test; assay type: functional
[5] = Toxicity against Oryza sativa (rice) assessed as growth inhibition at 600 ai g/ha post-emergent application measured after 20 days by green house crop selectivity test; assay type: organism-based; details: in vivo, read-out: GI
Cardamine hirsuta [6] = assay: Post-emergence herbicidal activity against Cardamine hirsuta assessed as growth inhibition at 450 ai g/ha after 20 days by green house test; assay type: functional
[7] = Toxicity against Zea mays Gao you 1 (maize) assessed as growth inhibition at 450 ai g/ha post-emergent application measured after 20 days by green house crop selectivity test; assay type: organism-based; details: Gao you 1, zea mays, in vivo, read-out: GI
[8] = Toxicity against Triticum aestivum Yang Mai 1 (wheat) assessed as growth inhibition at 600 ai g/ha post-emergent application measured after 20 days by green house crop selectivity test; assay type: organism-based; details: Yang Mai 1, triticum aestivum, in vivo, read-out: GI
[9] = Toxicity against Triticum aestivum Yang Mai 1 (wheat) assessed as growth inhibition at 225 ai g/ha post-emergent application measured after 20 days by green house crop selectivity test; assay type: organism-based; details: Yang Mai 1, triticum aestivum, in vivo, read-out: GI
Cardamine hirsuta [10] = assay: Post-emergence herbicidal activity against Cardamine hirsuta assessed as growth inhibition at 75 ai g/ha after 20 days by green house test; assay type: functional
Cardamine hirsuta [11] = assay: Post-emergence herbicidal activity against Cardamine hirsuta assessed as growth inhibition at 37.5 ai g/ha after 20 days by green house test; assay type: functional
Cardamine hirsuta [12] = assay: Post-emergence herbicidal activity against Cardamine hirsuta assessed as growth inhibition at 18.75 ai g/ha after 20 days by green house test; assay type: functional
Xanthium strumarium [13] = assay: Post-emergence herbicidal activity against Xanthium strumarium (cocklebur) assessed as growth inhibition at 450 ai g/ha after 20 days by green house test; assay type: functional
Xanthium strumarium [14] = assay: Post-emergence herbicidal activity against Xanthium strumarium (cocklebur) assessed as growth inhibition at 225 ai g/ha after 20 days by green house test; assay type: functional
Xanthium strumarium [15] = assay: Post-emergence herbicidal activity against Xanthium strumarium (cocklebur) assessed as growth inhibition at 150 ai g/ha after 20 days by green house test; assay type: functional
Xanthium strumarium [16] = assay: Post-emergence herbicidal activity against Xanthium strumarium (cocklebur) assessed as growth inhibition at 37.5 ai g/ha after 20 days by green house test; assay type: functional
Xanthium strumarium [17] = assay: Post-emergence herbicidal activity against Xanthium strumarium (cocklebur) assessed as growth inhibition at 18.75 ai g/ha after 20 days by green house test; assay type: functional
Amaranthus retroflexus [18] = assay: Post-emergence herbicidal activity against Amaranthus retroflexus assessed as growth inhibition at 75 ai g/ha after 20 days by green house test; assay type: functional
Amaranthus retroflexus [19] = assay: Post-emergence herbicidal activity against Amaranthus retroflexus assessed as growth inhibition at 18.75 ai g/ha after 20 days by green house test; assay type: functional
Eclipta prostrata = assay: Post-emergence herbicidal activity against Eclipta prostrata assessed as growth inhibition at 37.5 ai g/ha after 20 days by green house test; assay type: functional
Daucus carota = assay: Post-emergence herbicidal activity against Daucus carota (carrot) assessed as growth inhibition at 300 ai g/ha after 20 days by green house test; assay type: functional
[20] = system: Brassica rapa subsp. oleifera; assay: Post-emergence herbicidal activity against Brassica rapa subsp. oleifera Si Yue Man assessed as growth inhibition at 450 ai g/ha after 20 days by green house test; assay type: functional
[21] = system: Brassica rapa subsp. oleifera; assay: Post-emergence herbicidal activity against Brassica rapa subsp. oleifera Si Yue Man assessed as growth inhibition at 225 ai g/ha after 20 days by green house test; assay type: functional
[22] = system: Brassica rapa subsp. oleifera; assay: Post-emergence herbicidal activity against Brassica rapa subsp. oleifera Si Yue Man assessed as growth inhibition at 37.5 ai g/ha after 20 days by green house test; assay type: functional
Digitaria sanguinalis = assay: Post-emergence herbicidal activity against Digitaria sanguinalis (hairy crabgrass) assessed as growth inhibition at 37.5 ai g/ha after 20 days by green house test; assay type: functional

**Q.** Which results are given for `COP(=O)(OC)C(C)OC(=O)COc1ccc(Cl)cc1Cl` (configuration not stated) [CLACYFOS]?
**A.** inhibition (Oryza sativa [1]): 3.4%; inhibition (Oryza sativa [2]): 16.9%; growth inhibition (GI) (Echinochloa crus-galli [3]): 20%; growth inhibition (GI) (Echinochloa crus-galli [4]): 0%; growth inhibition (GI) (Medicago sativa): 100%; growth inhibition (GI) (Portulaca oleracea): 100%; inhibition at 480 h [5]: 0%; growth inhibition (GI) (Cardamine hirsuta [6]): 100%; inhibition at 480 h [7]: 0%; inhibition at 480 h [8]: 0%; inhibition at 480 h [9]: 0%; growth inhibition (GI) (Cardamine hirsuta [10]): 88%; growth inhibition (GI) (Cardamine hirsuta [11]): 84%; growth inhibition (GI) (Cardamine hirsuta [12]): 75%; growth inhibition (GI) (Xanthium strumarium [13]): 100%; growth inhibition (GI) (Xanthium strumarium [14]): 95%; growth inhibition (GI) (Xanthium strumarium [15]): 90%; growth inhibition (GI) (Xanthium strumarium [16]): 60%; growth inhibition (GI) (Xanthium strumarium [17]): 50%; growth inhibition (GI) (Amaranthus retroflexus [18]): 90%; growth inhibition (GI) (Amaranthus retroflexus [19]): 65%; growth inhibition (GI) (Eclipta prostrata): 72%; growth inhibition (GI) (Daucus carota): 100%; growth inhibition (GI) [20]: 100%; growth inhibition (GI) [21]: 100%; growth inhibition (GI) [22]: 90%; growth inhibition (GI) (Digitaria sanguinalis): 0%

Source: ChEMBL document CHEMBL3045592, “Studies of O,O-dimethyl α-(2,4-dichlorophenoxyacetoxy)ethylphosphonate (HW02) as a new herbicide. 1. Synthesis and herbicidal activity of HW02 and analogues as novel inhibitors of pyruvate dehydrogenase complex” (J Agric Food Chem, 2011)
